Assay results reported in doi:10.1101/2025.07.18.665579v1 (biorxiv, 2025).
Numbering of substitutions follows the chain as printed.

Columns and labels:
Assay in all cases: microscale thermophoresis
Assay type in all cases: binding
SbXAT (Sb3G094600) [1] = biological target: SbXAT (Sb3G094600) (Sorghum bicolor, UniProt A0A1B6Q2C2, F596Y)
SbXXT (Sb2G401600) [2] = biological target: T1, SbXXT (Sb2G401600) (Sorghum bicolor, UniProt C5X460, Y462F)
T1 sequence (C5X460 93-554 Y462F): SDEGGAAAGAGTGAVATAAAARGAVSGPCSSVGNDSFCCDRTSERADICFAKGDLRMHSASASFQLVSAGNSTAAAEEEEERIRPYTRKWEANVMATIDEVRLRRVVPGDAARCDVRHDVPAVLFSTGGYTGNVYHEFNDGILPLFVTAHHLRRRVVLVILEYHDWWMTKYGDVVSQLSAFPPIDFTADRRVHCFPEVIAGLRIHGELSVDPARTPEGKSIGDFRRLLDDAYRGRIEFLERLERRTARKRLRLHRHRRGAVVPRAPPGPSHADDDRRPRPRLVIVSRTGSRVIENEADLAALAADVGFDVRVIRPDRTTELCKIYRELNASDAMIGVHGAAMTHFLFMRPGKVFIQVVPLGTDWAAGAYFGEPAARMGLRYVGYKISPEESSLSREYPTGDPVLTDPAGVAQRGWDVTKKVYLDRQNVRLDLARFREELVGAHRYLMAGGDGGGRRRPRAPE

SbXAT (Sb3G094600) [3] = biological target: SbXAT (Sb3G094600) (Sorghum bicolor, UniProt A0A1B6Q2C2)
Sequence of SbXAT (Sb3G094600) (Sorghum bicolor, UniProt A0A1B6Q2C2) (A0A1B6Q2C2 198-685): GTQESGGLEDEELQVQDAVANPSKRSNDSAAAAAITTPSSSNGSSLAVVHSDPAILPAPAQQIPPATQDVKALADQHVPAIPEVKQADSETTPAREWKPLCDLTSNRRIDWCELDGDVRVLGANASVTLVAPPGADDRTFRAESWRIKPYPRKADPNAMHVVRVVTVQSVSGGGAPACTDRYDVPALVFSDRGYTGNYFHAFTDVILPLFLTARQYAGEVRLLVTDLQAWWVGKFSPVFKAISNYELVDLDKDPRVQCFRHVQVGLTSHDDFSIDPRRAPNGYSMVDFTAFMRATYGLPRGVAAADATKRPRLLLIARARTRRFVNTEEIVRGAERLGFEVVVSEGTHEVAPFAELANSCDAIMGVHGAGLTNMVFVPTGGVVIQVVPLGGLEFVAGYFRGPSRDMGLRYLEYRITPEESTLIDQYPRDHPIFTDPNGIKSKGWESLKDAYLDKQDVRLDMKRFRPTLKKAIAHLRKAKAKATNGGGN

SbXXT (Sb2G401600) [4] = biological target: T2, SbXXT (Sb2G401600) (Sorghum bicolor, UniProt C5X460)
T2 sequence (C5X460 93-554): T1 sequence (C5X460 93-554 Y462F) with F370Y

Sequence of SbXAT (Sb3G094600) (Sorghum bicolor, UniProt A0A1B6Q2C2, F596Y) (A0A1B6Q2C2 198-685 F596Y): as the sequence (A0A1B6Q2C2 198-685) above, with F399Y counted along it

| Kd (SbXAT (Sb3G094600) [1]) | Kd (SbXXT (Sb2G401600) [2]) | Kd (SbXAT (Sb3G094600) [3]) | Kd (SbXXT (Sb2G401600) [4]) | Compound |
| --- | --- | --- | --- | --- |
| 531 µM | 19 µM | 244 µM | 26 µM | O=c1ccn([C@@H]2O[C@H](COP(=O)(O)OP(=O)(O)O[C@H]3O[C@@H](CO)[C@H](O)[C@H]3O)[C@@H](O)[C@H]2O)c(=O)[nH]1 [UDP-Araf] |
| 221 µM | 15 µM | 373 µM | 13 µM | O=c1ccn([C@@H]2O[C@H](COP(=O)(O)OP(=O)(O)O[C@H]3OC[C@@H](O)[C@H](O)[C@H]3O)[C@@H](O)[C@H]2O)c(=O)[nH]1 [UDP-Xyl] |
